Seven compounds from publication PMC10537105, “Derivatives Incorporating Acridine, Pyrrole, and Thiazolidine Rings as Promising Antitumor Agents” (Molecules, 2023) can be followed below.

A word on the IC50: it is the concentration needed to halve the response being measured. Broadly, the melting point is the temperature, or range, at which the solid turns liquid.

The test system of one series is COS-7. In words: MTT assay, COS-7 normal cells. It counts as cell-based, monkey. Conditions: normal cell line, read-out: IC50 values ± SD, COS-7. An excerpt: (§1) The impact of acridine spiro derivatives 6–10 (Figure 13) on the metabolic activity of various tumor cell lines HCT-116 (human colorectal carcinoma), Jurkat (human leukemia cells), HeLa (human cervical adenocarcinoma), MDA-MB-231, and MCF-7 (human breast adenocarcinoma), and normal cell lines COS-7 (monkey kidney cells) and BJ-5ta (skin fibroblasts) was investigated using the MTT assay. This assay measures the conversion of yellow 3-(4,5-dimethylthiazol-2-yl)-2,5-diphenyltetrazolium bromide (MTT) to insoluble purple formazan by metabolically active cells. The antiproliferative activities of the tested compounds were determined based on the results from the MTT assay, and the inhibitory concentration values (IC50) are presented in Table 5.
(§2) The human cancer cell lines employed in this study were sourced from reputable institutions, including the American Type Culture Collection (ATCC; Manassas, VA, USA) and the European Collection of Authenticated Cell Cultures (ECACC, Salisbury, UK). Specifically, HeLa (93021013, human cervical adenocarcinoma), HCT116 (CCL-247TM, human colorectal carcinoma), and Jurkat (88042803, human leukemic T-cell lymphoma) were cultured in RPMI 1640 medium (Biosera, Kansas City, MO, USA). In contrast, MCF-7 (HTB-22TM, human breast adenocarcinoma, ER+), MDA-MB-231 (HTB-26TM, human breast adenocarcinoma, ER−), and COS-7 (CRL-1651TM, kidney fibroblasts) were nurtured in high-glucose Dulbecco’s Modified Eagle Medium (DMEM) supplemented with sodium pyruvate (Biosera). Furthermore, BJ-5ta (CRL-4001TM, human dermal fibroblasts) was cultured in a composite medium of high-glucose DMEM and M199 (4:1) (Biosera), supplemented with Hygromycin B (0.01 mg/mL; Merck, Darmstadt, Germany). All culture media were enriched with a 10% fetal bovine serum (FBS; Gibco, Thermo Scientific, Rockford, IL, USA) and an antibiotic/antimycotic solution (Merck) to ensure optimal growth conditions. The cells were meticulously maintained within a humidified environment containing 5% CO2 at 37 °C. Regular screenings for mycoplasma contamination were conducted using Hoechst 33342 staining (Merck), confirming the integrity of the cell lines.
(§3) To assess the antiproliferative impact of the synthesized compounds 6–10, their half-maximal inhibitory concentration (IC50) and the MTT colorimetric assay were employed. MDA-MB-231 and MCF-7 cells were seeded into 96-well microplates (SARSTEDT, Nümbrecht, Germany) at a density of 5 × 10^3 cells per well. After 24 h of cell seeding, various concentrations (100, 50, and 10 µmol/L) of acridine derivatives 6–10 were introduced, alongside cisplatin (utilized as a reference) at concentrations of 5, 10, 20, 50, and 100 µmol/L. Subsequent to 24, 48, and 72 h of treatment, the cells in each well underwent incubation with MTT (5 mg/mL, Sigma-Aldrich Chemie, Steinheim, Germany) for 4 h at 37 °C in the dark. During this period, mitochondrial oxidoreductases metabolized MTT, forming insoluble formazan. Following this, 100 µL of SDS (10% […]) was added to dissolve the formazan crystals, and the cells were incubated for an additional 12 h. Absorbance at 540 nm was measured using the automated Cytation™ 3 Cell Imaging Multi-Mode Reader (Biotek, Winooski, VT, USA). Each test was performed in triplicate, and three independent experiments were conducted to ensure precision and reliability.
A general note: Formazan colour is commonly taken as a measure of viable cells.

Another series relates to HCT-116. In words: MTT assay, HCT-116 cells. Conditions: MTT, 72 h of incubation, read-out: IC50 values ± SD, HCT-116. Type of series: cell-based, human.
From the text: as §1, §2, §3

Another series relates to MCF-7. In words: MTT assay, MCF-7 cells. Type of series: cell-based, human. Conditions: read-out: IC50 values ± SD, MCF-7.
From the text: as §1, §2, §3

The next series has as its system MDA-MB-231. Nature of the series: MTT assay, MDA-MB-231 cells. It counts as cell-based, human. The conditions noted are these: read-out: IC50 values ± SD, MDA-MB-231.
From the text: as §1, §2, §3

The subject of another series is Jurkat. In words: MTT assay, Jurkat cells. Conditions: MTT, 72 h of incubation, read-out: IC50 values ± SD, Jurkat. Type of series: cell-based, human.
From the text: as §1, §2, §3

In another series the test system is HeLa. In words: MTT assay, HeLa cells. Type of series: cell-based, human. The conditions noted are these: 72 h of incubation, read-out: IC50 values ± SD, HeLa.
From the text: as §1, §2, §3

A further series deals with BJ-5ta. In words: MTT assay, BJ-5ta normal fibroblasts. Type of series: cell-based, human. The conditions noted are these: 72 h of incubation, normal cell line, read-out: IC50 values ± SD, BJ-5ta.
From the text: as §1, §2, §3

Setting [1] is: Primates, COS-7, 72 h of incubation.
[2] abbreviates: Homo sapiens, MCF7, 72 h of incubation.
Setting [3] is: Homo sapiens, MDA-MB-231, 72 h of incubation.

Structures are written as SMILES. Read-outs that look alike come from different tables or passages of the source.

Regarding `CCOC(=O)/C=C1\S/C(=N\N2C(=O)C(C#N)=CC23c2ccccc2Nc2ccccc23)N(c2ccc([N+](=O)[O-])cc2)C1=O` [8e, Ethyl 2-[(2Z,5Z)-2-({4′-cyano-5′-oxo-1′,5′-dihydro-10H-spiro[acridine-9,2′-pyrrol]-1′-yl}imino)-3-(4-nitrophenyl)-4-oxo-1,3-thiazolidin-5-ylidene]acetate], the melting point is 183 to 186 °C (dec.). Besides, the IC50 in the series on COS-7 (setting [1]) turned out to be 10.2 ± 0.5 µM. For the same compound, in the series on HCT-116 (Homo sapiens, HCT-116), the IC50 came out at 5.45 ± 0.01 µM. Besides, the IC50 in the series with MCF-7 (setting [2]) amounted to 9.48 ± 0.27 µM. The half-maximal inhibitory concentration (IC50) in the series with MDA-MB-231 (setting [3]) is 8 ± 1.32 µM. Besides, the IC50 in the series on Jurkat (Homo sapiens, Jurkat) was 5.6 ± 0.04 µM. In addition, the 50% inhibitory concentration (IC50) in the series with HeLa (Homo sapiens, HeLa) worked out at 6.5 ± 0.43 µM. Further, the IC50 with BJ-5ta (Homo sapiens, Fibroblast) came to 7.07 ± 0.26 µM.
`N#CC1=CC2(c3ccccc3Nc3ccccc32)N(NC(=S)Nc2ccc(F)cc2)C1=O` [6d, 3-{4′-Cyano-5′-oxo-1′,5′-dihydro-10H-spiro[acridine-9,2′-pyrrol]-1′-yl}-1-(4-fluorophenyl)thiourea]: the melting point was 197 to 199 °C (dec.). The IC50 in the series on COS-7 (setting [1]) was over 100 µM. Moreover, in the series with HCT-116 (Homo sapiens, HCT-116), the IC50 was 18.9 ± 4.71 µM. Besides, in the series with MCF-7 (setting [2]), the half-maximal inhibitory concentration (IC50) was over 100 µM. The IC50 with MDA-MB-231 (setting [3]) was over 100 µM. Further, the IC50 in the series with Jurkat (Homo sapiens, Jurkat) came out at 31.8 ± 5.65 µM. In addition, the IC50 in the series on HeLa (Homo sapiens, HeLa) was over 100 µM. For the same compound, the IC50 in the series with BJ-5ta (Homo sapiens, Fibroblast) is over 100 µM.
Regarding `CCOC(=O)/C=C1\S/C(=N\N2C(=O)C(C#N)=CC23c2ccccc2Nc2ccccc23)N(c2ccc(OC)cc2)C1=O` [8b, Ethyl 2-[(2Z,5Z)-2-({4′-cyano-5′-oxo-1′,5′-dihydro-10H-spiro[acridine-9,2′-pyrrol]-1′-yl}imino)-3-(4-methoxyphenyl)-4-oxo-1,3-thiazolidin-5-ylidene]acetate], the concentration for half-maximal inhibition (IC50) in the series with COS-7 (setting [1]) is 11.5 ± 1.74 µM; in the series on HCT-116 (Homo sapiens, HCT-116) it was 5.37 ± 0.01 µM; in the series on MCF-7 (setting [2]), 12.8 ± 4.24 µM; with MDA-MB-231 (setting [3]), 7.43 ± 0.72 µM; in the series with Jurkat (Homo sapiens, Jurkat), 5.67 ± 0.03 µM; in the series on HeLa (Homo sapiens, HeLa) it was 16.9 ± 3.5 µM. Also, the half-maximal inhibitory concentration (IC50) in the series with BJ-5ta (Homo sapiens, Fibroblast) amounted to 6.82 ± 0.24 µM.
With `CCCC1S/C(=N\N2C(=O)C(C#N)=CC23c2ccccc2Nc2ccccc23)N(c2ccc([N+](=O)[O-])cc2)C1=O` (centres unmarked) [10e, 1′-{[(2Z)-3-(4-Nitrophenyl)-4-oxo-5-propyl-1,3-thiazolidin-2-ylidene]amino}-5′-oxo-1′,5′-dihydro-10H-spiro[acridine-9,2′-pyrrole]-4′-carbonitrile], the melting point is 249 to 251 °C (dec.). The IC50 in the series with COS-7 (setting [1]) was over 100 µM. In the series with HCT-116 (Homo sapiens, HCT-116), the IC50 is over 100 µM. Also, the 50% inhibitory concentration (IC50) with MCF-7 (setting [2]) was found to be 91.3 ± 3.74 µM. Besides, the concentration for half-maximal inhibition (IC50) in the series with MDA-MB-231 (setting [3]) is over 100 µM. Besides, the half-inhibitory concentration (IC50) in the series with Jurkat (Homo sapiens, Jurkat) is over 100 µM. Besides, the concentration for half-maximal inhibition (IC50) in the series on HeLa (Homo sapiens, HeLa) was over 100 µM. Also, the IC50 in the series on BJ-5ta (Homo sapiens, Fibroblast) is over 100 µM.
With `COc1ccc(NC(=S)NN2C(=O)C(C#N)=CC23c2ccccc2Nc2ccccc23)cc1` [6b, 3-{4′-Cyano-5′-oxo-1′,5′-dihydro-10H-spiro[acridine-9,2′-pyrrol]-1′-yl}-1-(4-methoxyphenyl)thiourea], the half-inhibitory concentration (IC50) is over 100 µM with COS-7 (setting [1]); 41.5 ± 4.77 µM with HCT-116 (Homo sapiens, HCT-116); over 100 µM in the series on MCF-7 (setting [2]); over 100 µM in the series with MDA-MB-231 (setting [3]); 39.9 ± 5.19 µM in the series with Jurkat (Homo sapiens, Jurkat); over 100 µM in the series on HeLa (Homo sapiens, HeLa). The half-inhibitory concentration (IC50) in the series on BJ-5ta (Homo sapiens, Fibroblast) is over 100 µM.
Regarding `CCCC1S/C(=N\N2C(=O)C(C#N)=CC23c2ccccc2Nc2ccccc23)N(c2cccc(OC)c2)C1=O` (centres unmarked) [10c, 1′-{[(2Z)-3-(3-Methoxyphenyl)-4-oxo-5-propyl-1,3-thiazolidin-2-ylidene]amino}-5′-oxo-1′,5′-dihydro-10H-spiro[acridine-9,2′-pyrrole]-4′-carbonitrile], the melting point was 229 to 231 °C (dec.). Moreover, the IC50 in the series on COS-7 (setting [1]) was over 100 µM. Also, in the series on HCT-116 (Homo sapiens, HCT-116), the 50% inhibitory concentration (IC50) is over 100 µM. In addition, in the series on MCF-7 (setting [2]), the IC50 is over 100 µM. Also, the IC50 with MDA-MB-231 (setting [3]) is over 100 µM. Also, the IC50 in the series on Jurkat (Homo sapiens, Jurkat) was over 100 µM. In addition, the IC50 in the series on HeLa (Homo sapiens, HeLa) was over 100 µM. For the same compound, the IC50 in the series on BJ-5ta (Homo sapiens, Fibroblast) was over 100 µM.
In the case of `N.N.[Cl][Pt][Cl]` [Cisplatin, cisplatin, reference compound], the 50% inhibitory concentration (IC50) with COS-7 (72 h of incubation) turned out to be 24.6 ± 1.4 µM; in the series on HCT-116 it was 12.4 ± 2.1 µM; with MCF-7 (72 h of incubation), 26.5 ± 3.19 µM; in the series with MDA-MB-231 (72 h of incubation), 7.1 ± 0.9 µM; with Jurkat, 8.18 ± 1.6 µM; with HeLa, 35.4 ± 2.5 µM. Moreover, the half-inhibitory concentration (IC50) in the series with BJ-5ta was found to be 36 ± 1.87 µM.
